Assay results as given in US20050042714A1, “Glycoconjugates of sialic acid derivates, methods for their production and use thereof” (priority 2001, published 2005).

What was measured:
HL60-I cells [1] = assay: uptake of peracetylated/esterified NeuAc: VVA and TML lectin staining by flow cytometry; type: cell-based, human; conditions: HL60-I cells, 0.03 to 1 mM (NeuAc 1 or 5 mM), 72 h, 0.5% DMSO
Description: Peracetylation of NeuAc only facilitates uptake if the carboxyl group is additionally esterified. Hyposialylated HL60-I cells were cultivated in the presence of indicated synthetic sialic acid analogue (stock solution 200 mM in DMSO) ranging from 0.03 to 1 mM or 0, 1 or 5 mM NeuA for 72 h with DMSO concentrations adjusted to 0.5%. Cells were stained with either directly fluorochrome-coupled lectin VVA, or biotin-coupled lectin (TML) and streptavidin-FITC for analysis by flow cytometry. Values given are relative factors of change of the mean fluorescence intensity of pretreated cells relative to untreated cells. The bars represent arithmetic means±SD (n=3). Molecular structures are given below the diagram.
Sugars are very hydrophilic and it has been shown that increasing the hydrophobicity by peracetylation of hydroxyl groups enables or facilitates uptake of disaccharides (Collins, B. E., Fralich, T. J., Itonori, S., Ichikawa, Y. and Schnaar, R. L. (2000) Glycobiology, 10, 11-20; Sarkar, A. K., Fritz, T. A., Taylor, W. H. and Esko, J. D. (1995) Proc Natl Acad Sci USA, 92, 3323-7; Sarkar, A. K., Rostand, K. S., Jain, R. K., Matta, K. L. and Esko, J. D. (1997) J Biol Chem, 272, 25608-16). For ManNAc derivatives it has been shown that peracetylation reduces required medium concentrations (Collins et al., 2000). The acetyl groups are cleaved-off intracellularly by cellular esterases (Collins et al., 2000; Sarkar et al., 1995; Sarkar et al., 1997) and the derivatives are then processed as known for the non-acetylated sugars. In order to address the question whether peracetylation also facilitates uptake of N-acetylneuraminic acid, HL60-I cells were cultivated in the presence of peracetylated NeuAc at concentrations ranging from 0.03 mM to 1 mM for 3 days. Changes in cell surface sialylation were measured by flow cytometry using Vicia Villosa agglutinin (VVA) and Tritrichomonas mobilensis lectin (TML). […] This represents a reduction in concentration by more than 16-fold and is in a similar range as reported for peracetylated ManNAc and ManNAc (Collins et al., 2000).
(§1) Lyophilized FITC-conjugated lectins Vicia villosa (VVA) was obtained from Sigma, dissolved in H2O (1 mg/ml), aliquoted and stored at −20° C. according to the manufacturer's instructions. FITC-conjugated Limax flavus agglutinin (LFA) was from EY Laboratories (San Manteo, Calif., USA) and biotin-coupled Tritrichomonas mobilensis agglutinin (TLM) from Calbiochem. Lectin staining procedure and fluorescence-activated cell scanning on a Becton Dickinson FACScan cytometer using Cellquest II software were carried out as described (Keppler, O. T., Molden-hauer, G., Oppenländer, M., Schwartz-Albiez, R., Berger, E. G., Funderud, S., and Pawlita, M. (1992) Eur J Immunol 22(11), 2777-81). Briefly, cells (3×10^5) were washed twice in cold PBS and then incubated in 100 μl PBS/0.05% NaN3, containing either fluorochrome-conjugated lectins VVA (50 μg/ml), LFA (20 μg/ml), or biotinylated TLM (20 μg/ml) for 45 min on ice in the dark. For biotinylated TLM a secondary incubation step with steptavidin-FITC (20 μg/ml) (Sigma) for 30 min on ice in the dark is required. After washing with PBS, cells were resuspended in 300 μl PBS and analyzed by flow cytometry.

[2] = test system: B-lymphotropic papovavirus (LPV) in BJA-B K20 cells; conditions: NeuAc treatment, stated as known; cited from earlier work
[3] = test system: B-lymphotropic papovavirus (LPV) in BJA-B K88 cells; assay: LPV infection of analogue-treated normally sialylated cells (VP1 ELISA); type: cell-based, human
Description: Changes in permissivity for the sialic acid-dependent B-lymphotropic papovavirus (LPV) in hyposialylated (K20) and normally sialylated (K88) BJA-B cells after treatment with sialic acid analogues. Cells were treated with analogues or NeuAc for 3d. 50 h post LPV inoculation the LPV infection was quantified (A) by detecting the amount of LPV VP1 in cell lysates relative to the total protein content by ELISA and (B) by indirect immunofluorescence microscopy as percentage of LPV T-antigen-positive BJA-B K20 cells. A, values are given as arithmetic means±SD of three independent experiments. B, representatives of three experiments are shown. DAPI-staining (left) indicates the total amount of cells in the section, on the right LPV T-antigen positive cells are shown with the average percentage given beside. […]
BJA-B subclones were infected with the B-lymphotropic papovavirus (LPV) as described (Keppler, O. T., Herrmann, M., Oppenländer, M., Meschede, W., and Pawlita, M. (1994) J Virol 68(11), 6933-9). […] LPV infection was quantified by indirect immunofluorescence microscopy as percentage of LPV T-antigen positive cells and the amount of LPV VP1 in cell lysates was determined by ELISA relative to the total protein extracted.

HL60-I cells [4] = assay: metabolic complementation assay: lectin staining (VVA, LFA, TLM) of analogue-treated cells by flow cytometry; type: cell-based, human; conditions: 5 mM, 24 h; for effect on VVA binding: decrease = masking of GalNAc by sialic acid
Description: Medium supplementation with some synthetic sialic acid analogues restores cell surface sialylation in hyposialylated HL60-I cells. Cells were cultivated in the presence of indicated synthetic sialic acid analogue (5 mM) for 24 h and stained with either directly fluorochrome-coupled lectins (VVA, LFA) or biotin-coupled lectin (TLM) and streptavidin-FITC and analyzed by flow cytometry. Values are given as “relative factor of change” (RFC) of the “mean fluorescence intensity” (MFI) of sialic acid-treated cells relative to untreated cells. The bars represent arithmetic means±SD (n^34) of one (x) or ≧two experiments.
To test whether cells can incorporate synthetic sialic acid analogues from the culture medium, a metabolic complementation assay was performed on endogenously hyposialylated, UDP-GlcNAc-2-epimerase-deficient HL60-I cells.
Cells were cultivated for 24 h in the presence of one of 16 different synthetic sialic acid analogues, carrying distinct C5 or C9 modifications (FIG. 1), and subsequently, changes in cell surface sialylation were assessed by flow cytometry using three fluorochrome-conjugated sialic acid-sensitive lectins. Vicia villosa agglutinin (VVA) detects GalNAc residues, and its binding sites can be masked by the addition of terminal sialic acid residues.
In sugar supplementation assays, cells seeded at 5×10^5 cells/ml in culture medium buffered with 40 mM HEPES (pH 7.2) were cultivated for 24 h in the presence or absence of 5 mM sialic acids (stocks of 100 mM dissolved in H2O, stored at 4° C.).
as §1

BJA-B K20 cells = assay: HPLC of membrane-associated sialic acids from analogue-treated cells; type: cell-based, human; conditions: serum-free, 5 mM, 48 h
Description: Sialic acid analogues are incorporated in cell surface glycoconjugates. HPLC chromatograms of DMB-derivatised sialic acids hydrolysed from glycoproteins of sialic acid analogue-treated BJA-B K20 cells. (A) standards, (B) untreated cells, (C) cells cultivated in 5-N-fluoroacNeu, (D) cells cultivated in 9-iodo-NeuAc. Peaks were identified as follows: NeuGc (internal standard), NeuAc, 5-N-fluoroac-Neu, 9-iodo-NeuAc, Na-pyruvate (internal standard). Internal standards were added to each sample.
To confirm that synthetic sialic acid analogues supplementing the medium were taken up and metabolically incorporated as analogues into surface sialoglyco-conjugates the membrane-associated sialic acid fraction was analyzed by High Performance Liquid Chromatography (HPLC). […]
To confirm that the modifications are still present after incorporation into glycoconjugates sialic acids were cleaved off cell surfaces and analyzed by HPLC. […] Sialic acids derivation was performed according to a method as given below and samples were analyzed on a reversed-phase C18 column as described (Keppler, O. T., Stehling, P., Herrmann, M., Kayser, H., Grunow, D., Reutter, W., and Pawlita, M. (1995) J Biol Chem 270(3), 1308-14).

CD75s in BJA-B K20 cells = assay: de novo expression of sialoglycan CD75s by indirect immunofluorescence (antibody HH2); type: cell-based, human; conditions: serum-free, 5 mM, 0-6 h
Description: Kinetics of 9-iodo-NeuAc-induced expression of sialoglycan CD75s in BJA-B K20 cells in comparison with its precursor 6-iodo-ManNAc. Cells were cultivated under serum-free conditions for at least 7 d and then either ManNAc, 6-iodo-ManNAc, 9-iodo-NeuAc or NeuAc (each 5 mM) was added. The de novo expression of CD75s was monitored at the indicated time points by indirect immunofluorescence using fixed and permeabilized cells. Representative confocal pictures of two independent experiments are shown.
The superiority of biosynthetic incorporation of sialic acid variants by NeuAc derivatives over derivatized ManNAc precurors was shown by directly comparing 9-iodo-NeuAc and the corresponding 6-iodo-ManNAc. K20 cells cultivated under serum-free conditions were incubated for 0-6 h with either 9-iodo-NeuAc or 6-iodo-ManNAc prior to analysis of CD75s expression. CD75s is an α-2,6 sialylated cell surface antigen of mature B-lymphocytes which is not detectable with the monoclonal antibody HH2 in K20 cells cultured in the absence of serum. […] We conclude that presentation of C9-modified sialic acids on the cell surface is only possible by medium supplementation with sialic acid analogues, but not with ManNAc analogues. […]

[5] = stability under physiological conditions; type: physicochemical; conditions: most likely hydrolysed to NeuAc in the cytoplasm

Row | SMILES | effect on cell surface sialylation (VVA and TML binding) (HL60-I cells [1]) | cells infected by LPV [2] | LPV-permissivity [3] | increase of LFA binding (relative factor of change of mean fluorescence intensity vs untreated cells) (HL60-I cells [4]) [fold] | increase of TLM binding (relative factor of change of mean fluorescence intensity vs untreated cells) (HL60-I cells [4]) [fold] | effect on VVA binding (HL60-I cells [4]) | share of membrane-associated sialic acids consisting of the analogue (BJA-B K20 cells) [%] | effect on LFA binding (HL60-I cells [4]) | effect on TLM binding (HL60-I cells [4]) | time to strong intracellular CD75s signal (CD75s in BJA-B K20 cells) [h] | effect on CD75s expression within 6 h (CD75s in BJA-B K20 cells) | stability under physiological conditions [5] | effect on LFA binding (HL60-I cells [4]; listed as NeuAc-Me-Ester) | effect on TLM binding (HL60-I cells [4]; listed as NeuAc-Me-Ester)
1 | CC(=O)N[C@H]1[C@H]([C@H](O)[C@H](O)CO)OC(O)(C(=O)O)C[C@@H]1O (stereo partly drawn) [NeuAc, N-acetyl neuraminic acid, reference compound] | significant changes in lectin binding | about 17% | did not change permissivity significantly | 9.5 | 4.8 | decreased markedly |  |  |  |  |  |  |  | 
2 | CC(=O)N[C@H]1[C@H]([C@H](O)[C@H](O)CI)OC(O)(C(=O)O)C[C@@H]1O (stereo partly drawn) [analogue f, 5-N-acetyl-9-deoxy-9-iodo-neuraminic acid] |  |  |  | 19.2 | 6.4 | significantly decreased VVA-binding | 86.1 | increased binding of LFA | increased binding | ≤ 1 |  |  |  | 
3 | CC(=O)N[C@@H]1C(O)O[C@H](CI)[C@@H](O)[C@@H]1O (stereo partly drawn) [6-iodo-ManNAc, reference compound] |  |  |  |  |  |  |  |  |  |  | did not show any effect |  |  | 
4 | COC(=O)C1(O)C[C@H](O)[C@@H](NC(C)=O)[C@H]([C@H](O)[C@H](O)CO)O1 (stereo partly drawn) [analogue o, methyl N-acetyl neuraminate] | did not affect uptake |  |  |  |  | significantly decreased VVA-binding |  | increased binding of LFA | increased binding |  |  | unstable under physiological conditions | very similar to those of NeuAc | very similar to those of NeuAc
